The results in this text go back to patent US7303876B2 (Applera Corporation, priority 2000, dated 2007).

One data set has as its system slices of liver. Description: Maceration of liver slices by reaction compositions at 65° C. To be noted: 65° C. The procedure:
Initially, a series of reaction compositions were analyzed for their ability to disaggregate a biological sample, e.g., slices of liver. These reaction compositions comprised 100 mM Tris, pH 8.0, 20 mM dithiothreitol (DTT), and optionally,1 mg/ml Proteinase K, surfactants (e.g., cationic, nonionic and anionic detergents), chaotropes, or the additive 1-methyl-2-pyrollidinone (Sigma). Each reaction compositions was placed in a tube with a slice of liver and then incubated at 65° C. The tubes were observed periodically to determine which reaction compositions were able to efficiently macerate the sample.

Data set [1] deals with Liver tissue. Kind of data set: Liver tissue disaggregation by 1% surfactant with or without Proteinase K at 60° C. Set-up: Tissue Disaggregation: scale not given here. To be noted: for Tissue Disaggregation: 60° C., 1% surfactant. As to the method: To evaluate the ability of various cationic surfactants to increase the digestion of tissue by Proteinase K, liver slices were digested using reaction compositions including one of the sixteen surfactants (shown in Table 4), both with and without Proteinase K. The reducing agent dithiothreitol (DTT) was included to evaluate the effect of reducing conditions on tissue digestion. […] One of the sixteen surfactants was added to one pair of tubes to yield a final concentration of 1% surfactant. The seventeenth pair of tubes served as non-surfactant controls. One milligram (mg) of Proteinase K was added to one tube of each of the seventeen pairs.
PK=presence or absence of Proteinase K in the reaction composition; Y=Proteinase K was present; N=Proteinase K was not present in the reaction composition.

Data set [2] has as its system Liver tissue. Description: Nucleic acid release from liver slices, pH 6, 45° C., 20 minutes, surfactants and additives. To be noted: with Proteinase K, FIG. 5. As to the method:
The results from Example 6 indicate that there was significant nuclease activity present in the sample. To reduce the nucleolytic activity of endogenous RNAses, the pH of the reaction composition was lowered to approximately 6.0 and the incubation temperature was decreased to 45° C. Several additives, including phenylglyoxal (Aldrich #14243-3), 1-methyl-2-pyrolidinone, RNA Later (Ambion, #7020), and Streck Tissue Fixitive (Streck Laboratories, #265138) were also tested to evaluate their effect on endogenous RNAse activity in these reaction compositions. Phenylglyoxal is known to reduce ribonuclease activity (see Takahashi, The Structure And Funtion Of Ribonuclease T1. XI. Modification Of The Single Arginine Residue In Ribonuclease T1 By Phenylglyoxal And Glyoxal, J. Biochem (Japan) 68:659-664, 1970). The product literature for RNA Later claims that the reagent stabilizes RNA in tissue and Streck Tissue Fixative is believed to preserve the integrity of tissue.
Slices of liver tissue (100-200 mg/sample) were placed into nineteen Eppendorf tubes. Four hundred microliters of a reaction composition comprising 100 mM MES (Sigma #M-5287), pH 6, 20 mM CaCl2, and 1 mg Proteinase K, was added to each tube.
The tubes were incubated at 45° C. for 20 minutes with mixing (Eppendorf Thermomixer, Model 5436). […] Undigested tissue fragments were removed by centrifugation using the methods the same as or similar to those discussed in Example 6. The supernatant was phenol extracted (saturated with 10 mM Tris HCl , pH 8, 1 mM EDTA; Sigma #P-4557), isopropanol precipitated (Aldrich #19076-4), and ethanol washed using methods the same as or similar to those described in Example 6.

Data set [3] has as its system Liver tissue. Description: Integrity of nucleic acid released from liver slices with aurintricarboxylic acid, 55° C., 30 minutes. The note with it: 1% surfactant, FIG. 11. The procedure:
Slices of liver tissue (77-186 mg/sample) were placed into twenty-one Eppendorf tubes. To each tube was added 400 μL of a reaction composition comprising 50 mM MES, pH 6.0, 20 mM CaCl2, and additional components as shown in Table 10.
The tubes were incubated at 55° C. with mixing (Eppendorf Thermomixer, Model 5436) for 30 minutes. The resulting surfactant-protease complex was solubilized using methods the same as or similar to those described in Example 7. Undigested tissue fragments were removed by centrifugation using methods the same as or similar to those described in Example 7. The supernatant was phenol extracted, isopropanol precipitated and ethanol washed using methods the same as or similar to those described in Example 6.

Data set [4] can be described thus: Solubility of surfactants (0.5% Sarkosyl, LDS, SDS, CTAB; 5.0% others) in salt solutions. The procedure:
In certain instances, the solubility of detergents in high salt may relate to on the composition of the salt and the detergent itself. A mixing experiment was performed to examine the solubility of a variety of anionic, cationic, and nonionic surfactants in different salt compositions. […] The salt solutions contained Lil, Nal, KI, Rbl, Csl , GuSCN, GuHCl, or NaClO4, at pH 6.0 or 10.0. […] The solubility of the surfactants was scored as either soluble or insoluble. The solubility of the surfactant in the salt solution was determined initially by visual observations for cloudiness or precipitate formation. The resulting solutions were also centrifuged to verify the absence of a precipitate by the absence of a precipitate pellet.

For data set [5], the system named is Liver tissue. Kind of data set: Nucleic acid release from liver slices, pH 6, 45° C., 30 minutes, surfactants and additives. The note with it: with either 1-methy-2-pyrolidinone or acridine orange. As to the method:
To compare CTACl to CTAB, those two surfactants were evaluated in parallel along with hexadecyltrimethylammonium bromide (HDTAB), hexadecyltrimethylammonium chloride (HDTACl), and Sarkosyl. Three additives, phenylglyoxal, acridine orange (e.g., Sigma #A6014), and 1-methyl-2-pyrolidinone, were also evaluated. Phenylglyoxal was tested to determine if it would reduce RNAse activity. […] 1-Methyl-2-pyrrolidinone was tested to see if it would enhance solubility of the sample by various reaction compositions.
Slices of liver-tissue (100-200 mg/sample) were placed into twenty-one Eppendorf tubes. Four hundred microliters of a reaction composition, comprising 100 mM MES, pH 6, 20 mM CaCl2, and 1 mg Proteinase K, was added to each tube.
The tubes were incubated at 45° C. for 30 minutes with mixing (Eppendorf Thermomixer, Model 5436). Surfactant: protease complexes were solubilized using methods the same as or similar to those described in Example 7. Remaining tissue fragments were removed by centrifugation using methods the same as or similar to those described in Example 7. The supernatant was phenol extracted, isopropanol precipitated, and ethanol washed using methods the same as or similar to those described in Example 6.

In another data set the target is T1, Proteinase K (Parengyodontium album, UniProt P06873).
T1 construct: purchased Ambion 2546
T1 sequence (P06873 106-384): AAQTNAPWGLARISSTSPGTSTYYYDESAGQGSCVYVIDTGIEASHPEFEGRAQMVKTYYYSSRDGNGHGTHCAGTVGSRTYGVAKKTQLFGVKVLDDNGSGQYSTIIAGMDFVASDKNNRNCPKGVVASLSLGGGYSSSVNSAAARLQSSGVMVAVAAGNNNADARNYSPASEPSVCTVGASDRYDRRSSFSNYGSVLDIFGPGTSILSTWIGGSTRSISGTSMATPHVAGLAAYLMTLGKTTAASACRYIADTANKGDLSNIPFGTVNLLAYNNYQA
Kind of data set: Effect of surfactants on Proteinase K digestion of dye-labeled casein substrate. In kind it is biochemical. To be noted: 1% surfactant, 60° C., Proteinase K 0.005-20 μg/ml. As to the method: To test the effect of cationic surfactants on the activity of Proteinase K, a series of reaction compositions were prepared as follows. Reaction compositions comprised: Casein BoDipy conjugate (1 μg, 10 ng/μL), 10 mM Tris, pH 8, 20 mM CaCl2, 1% surfactant (shown in Table 2 below) and a dilution series of Proteinase K at concentrations of 20 μg/ml, 5 μg/ml, 1.25 μg/ml, 0.31 μg/ml, 0.078 μg/ml, 0.02 μg/ml and 0.005 μg/ml. […] Reaction tubes were incubated at 60° C. in a 96-well optical plate (MicroAmp® Optical 96-Well Reaction Plate, Applied Biosystems) and the amount of released fluorescence was measured at the indicated time points using an ABI Prism 7700.

A further data set concerns Calf thymus genomic DNA. Description: Reversal by Tween 20 of DTAB inhibition of DNA recovery from GF/B. As to the method:
Having identified the cationic surfactant as a major component inhibiting DNA recovery, the ability of a nonionic surfactant to reverse the inhibitory effect was examined. Calf thymus genomic DNA (8 μg) was bound to the glass fiber GF/B membrane in the presence of 0%, 1% and 4% dodecyltrimethylammonium bromide (DTAB) with increasing concentrations of Tween 20.
The binding buffer also contained 5M GuSCN, 20 mM EDTA, and 50 mM MES (pH 6.0). DNA was first eluted with 200 μl of TE followed by a separate elution with 100 μl of 0.1N NaOH. All binding and elution steps were done at ambient temperature.

Data set [6] relates to cationic surfactant: nucleic acid precipitate. Description: Solubilizing the cationic surfactant: nucleic acid precipitate (calf thymus DNA + 1% CTAB). To be noted: Calf thymus DNA 700 μg/ml, 100 mM Tris, pH 8, additive at final concentration.
Method: Calf thymus DNA (Sigma; 700 μg/ml lightly sheared using an 18 gauge hypodermic needle) was mixed with 1% CTAB in 100 mM Tris, pH 8 to form a reaction composition.
Where [7] appears, read: Fifteen Minutes Incubation, Proteinase K not present (N).
Setting [8] is: Fifteen Minutes Incubation, Proteinase K present (Y).
Where [9] appears, read: Fifty-Two Minutes Incubation, Proteinase K not present (N).
[10] abbreviates: Fifty-Two Minutes Incubation, Proteinase K present (Y).

Regarding `CCCCCCCCCCCCCCCC[N+](C)(C)C.[Br-]` [CTAB, cetyltrimethylammonium bromide], the “maceration of liver slice” value in the data set with slices of liver (1 mg/ml Proteinase K, 16-24 hr, additive 0.1%) is 100%; in the data set on slices of liver (1 mg/ml Proteinase K, 16-24 hr, additive 1%), 100%; with slices of liver (1 mg/ml Proteinase K, 1 hr, additive 0.1%), 100%; in the data set with slices of liver (1 mg/ml Proteinase K, 1 hr, additive 1%) it was 100%. In the data set on slices of liver, the “ability to macerate the liver sample (in words)” value was “most effectively macerated the sample”. Also, the “effect on the proteolytic activity of Proteinase K” value in the data set on slices of liver (liver slices) is reported as “appeared to enhance the proteolytic activity of Proteinase K”. Besides, the “Tissue Disaggregation” value is recorded as 0 in the data set with Liver tissue [1] (setting [7]), 4 in the data set on Liver tissue [1] (setting [8]), 0 in the data set on Liver tissue [1] (setting [9]) and 4 in the data set with Liver tissue [1] (setting [10]). Also, the “disaggregation of the tissue sample (in words)” value in the data set on Liver tissue [1] (combination with Proteinase K, 15 and 52 minutes) is “total disaggregation”; with Liver tissue [1] (surfactant alone, no Proteinase K), “no apparent sample disaggregation”. The “release of A260 absorbing material from the sample” value (from here on “release of A260 absorbing material”) with Liver tissue [2] is “released A260 absorbing material”. For the same compound, in the data set with Liver tissue [3], the “nucleic acid released, surfactant in reaction composition with aurintricarboxylic acid” value (from here on “nucleic acid released, surfactant”) is listed as “released a large amount of high integrity nucleic acid”. Further, the Solubility of surfactant entry in [4] (pH 6) was “S”.

For `CCCCCCCCCCCCCCCC[N+](C)(C)C.[Cl-]` [CTACl, cetyltrimethylammonium chloride], the “release of A260 absorbing material” value with Liver tissue [2] is reported as “released A260 absorbing material”. Further, the “high molecular weight nucleic acid by gel electrophoresis” value in the data set on Liver tissue [5] is recorded as “High molecular weight nucleic acid was also present”. The “nucleic acid released, surfactant” value in the data set on Liver tissue [3] is listed as “released a large amount of high integrity nucleic acid”.

Turning to `CCCCCCCCCCCCOS(=O)(=O)[O-].[Na+]` [SDS, sodium dodecyl sulfate], the “maceration of liver slice” value stood at 50% in the data set on slices of liver (1 mg/ml Proteinase K, 2-5 hr, additive 1%) and 0% with slices of liver (No Proteinase K, 2-5 hr, additive 1%). Besides, the “effect on Proteinase K activity on the casein substrate” value at Proteinase K is reported as “enhances the activity of Proteinase K”. For the same compound, the “Tissue Disaggregation” value in the data set on Liver tissue [1] (setting [7]) is given as 0; in the data set with Liver tissue [1] (setting [8]), 3; in the data set on Liver tissue [1] (setting [9]) it was 0; in the data set with Liver tissue [1] (setting [10]), 3. Further, the “release of A260 absorbing material” value in the data set on Liver tissue [2] was “released A260 absorbing material”. Moreover, the “nucleic acid released, surfactant” value in the data set on Liver tissue [3] is listed as “less nucleic acid was released”.

Turning to `CCCCCCCCCCCC(=O)N(C)CC(=O)[O-].[Na+]` [Sarkosyl, sodium N-lauroylsacrosinate], the “maceration of liver slice” value with slices of liver (No Proteinase K, 72 hr, additive 2%) is recorded as 0%. Further, in the data set on Liver tissue [2], the “release of A260 absorbing material” value was “released A260 absorbing material”.

“polyoxyethylenesorbitan monolaurate [Tween 20]”: the Solubility of surfactant result is on record as “S” in [4] (4 M GuHCl, Urea, pH 6.0); “S” in data set [4] (4 M GuHCl, Urea, pH 10.0); “S” in [4] (4 M KI, Urea, pH 6.0); “S” in data set [4] (4 M KI, Urea, pH 10.0); “S” in data set [4] (6 M GuHCl, pH 6.0); “S” in data set [4] (6 M GuHCl, pH 10.0). In addition, the Solubility of surfactant result in [4] (6 M NaI, pH 10.0) is “S”. Further, the “concentration at which the amount of DNA recovered increased significantly” value in the data set with Calf thymus genomic DNA (0% DTAB, FIG. 21) is “at least 1%”. Moreover, the “concentration that substantially blocked the inhibitory effect of the cationic surfactant” value is “at least 2%” in the data set on Calf thymus genomic DNA (1% DTAB, FIG. 22) and “at least 4%” in the data set with Calf thymus genomic DNA (4% DTAB, FIG. 23). For the same compound, the “Result (solubilization of the CTAB: nucleic acid precipitate)” value in [6] is listed as “neither NaCl nor Tween 20, used alone, solubilized the precipitate”.
